According to the NIST ThermoML archive (doi:10.1016/j.jct.2007.11.009):
Numbers after ± are expanded uncertainties.

Test: xn = mol fraction of the nth substance listed
Conditions: 318.15 K, Liquid, Vibrating tube method

CCCCCCCC [octane] + c1ccccc1
mass density [kg/m3]
Conditions	x1 = 0.1097	x1 = 0.2036	x1 = 0.2984	x1 = 0.4069	x1 = 0.5027	x1 = 0.5904	x1 = 0.6989	x1 = 0.7964	x1 = 0.904	x1 = 1
100 kPa	818.2 ± 0.2	794.1 ± 0.2	773.6 ± 0.2	753.6 ± 0.2	738.1 ± 0.3	725.8 ± 0.3	712.4 ± 0.3	701.5 ± 0.3	691.1 ± 0.3	682.8 ± 0.3
2130 kPa	820.2 ± 0.2	796.1 ± 0.2	775.6 ± 0.3	755.6 ± 0.3	740.1 ± 0.3	727.8 ± 0.3	714.4 ± 0.3	703.5 ± 0.3	693.1 ± 0.3	684.7 ± 0.3
4150 kPa	822.1 ± 0.3	798.1 ± 0.3	777.6 ± 0.3	757.6 ± 0.3	742.1 ± 0.3	729.8 ± 0.3	716.4 ± 0.3	705.5 ± 0.3	695.1 ± 0.3	686.7 ± 0.3
6180 kPa	824 ± 0.3	800 ± 0.3	779.5 ± 0.3	759.5 ± 0.3	744 ± 0.3	731.7 ± 0.3	718.3 ± 0.3	707.4 ± 0.3	696.9 ± 0.3	688.6 ± 0.3
8210 kPa	825.8 ± 0.3	801.9 ± 0.3	781.4 ± 0.3	761.4 ± 0.3	745.9 ± 0.3	733.6 ± 0.3	720.2 ± 0.3	709.3 ± 0.3	698.8 ± 0.3	690.4 ± 0.3
10230 kPa	827.7 ± 0.3	803.7 ± 0.3	783.3 ± 0.3	763.3 ± 0.3	747.8 ± 0.3	735.5 ± 0.3	722 ± 0.3	711.1 ± 0.3	700.6 ± 0.3	692.2 ± 0.3
11250 kPa	828.6 ± 0.3	804.6 ± 0.3	784.2 ± 0.3	764.2 ± 0.3	748.7 ± 0.3	736.4 ± 0.3	722.9 ± 0.3	712 ± 0.3	701.5 ± 0.3	693.1 ± 0.4
12260 kPa	829.4 ± 0.3	805.5 ± 0.3	785.1 ± 0.3	765.1 ± 0.3	749.6 ± 0.3	737.3 ± 0.3	723.8 ± 0.3	713 ± 0.3	702.4 ± 0.4	694 ± 0.4
14290 kPa	831.2 ± 0.3	807.3 ± 0.3	786.8 ± 0.3	766.9 ± 0.3	751.4 ± 0.3	739.1 ± 0.3	725.6 ± 0.4	714.7 ± 0.4	704.2 ± 0.4	695.7 ± 0.4
16310 kPa	832.9 ± 0.3	809 ± 0.3	788.6 ± 0.3	768.6 ± 0.3	753.2 ± 0.3	740.8 ± 0.4	727.3 ± 0.4	716.4 ± 0.4	705.9 ± 0.4	697.4 ± 0.4
18340 kPa	834.6 ± 0.3	810.7 ± 0.3	790.3 ± 0.3	770.3 ± 0.3	754.9 ± 0.4	742.5 ± 0.4	729 ± 0.4	718.1 ± 0.4	707.5 ± 0.4	699.1 ± 0.4
20370 kPa	836.2 ± 0.3	812.4 ± 0.3	792 ± 0.3	772 ± 0.4	756.6 ± 0.4	744.2 ± 0.4	730.7 ± 0.4	719.8 ± 0.4	709.2 ± 0.4	700.7 ± 0.4
22390 kPa	837.9 ± 0.3	814.1 ± 0.3	793.6 ± 0.4	773.7 ± 0.4	758.2 ± 0.4	745.8 ± 0.4	732.3 ± 0.4	721.4 ± 0.4	710.8 ± 0.4	702.3 ± 0.4
24420 kPa	839.5 ± 0.3	815.7 ± 0.3	795.3 ± 0.4	775.3 ± 0.4	759.8 ± 0.4	747.4 ± 0.4	733.9 ± 0.4	723 ± 0.4	712.4 ± 0.5	703.9 ± 0.5
26450 kPa	841 ± 0.3	817.3 ± 0.4	796.8 ± 0.4	776.9 ± 0.4	761.4 ± 0.4	749 ± 0.4	735.5 ± 0.4	724.5 ± 0.5	713.9 ± 0.5	705.4 ± 0.5
28470 kPa	842.6 ± 0.3	818.8 ± 0.4	798.5 ± 0.4	778.5 ± 0.4	763 ± 0.4	750.6 ± 0.4	737 ± 0.5	726.1 ± 0.5	715.4 ± 0.5	706.9 ± 0.5
29490 kPa	843.3 ± 0.3	819.6 ± 0.4	799.2 ± 0.4	779.2 ± 0.4	763.7 ± 0.4	751.4 ± 0.4	737.8 ± 0.5	726.8 ± 0.5	716.1 ± 0.5	707.6 ± 0.5
30500 kPa	844.1 ± 0.3	820.4 ± 0.4	799.9 ± 0.4	780 ± 0.4	764.5 ± 0.4	752.1 ± 0.5	738.5 ± 0.5	727.5 ± 0.5	716.9 ± 0.5	708.3 ± 0.5
32530 kPa	845.6 ± 0.4	821.9 ± 0.4	801.4 ± 0.4	781.5 ± 0.4	766 ± 0.5	753.6 ± 0.5	740 ± 0.5	729 ± 0.5	718.3 ± 0.5	709.7 ± 0.5
34550 kPa	847.1 ± 0.4	823.4 ± 0.4	802.9 ± 0.4	783 ± 0.4	767.5 ± 0.5	755.1 ± 0.5	741.5 ± 0.5	730.5 ± 0.5	719.7 ± 0.5	711.2 ± 0.6
36580 kPa	848.5 ± 0.4	824.8 ± 0.4	804.4 ± 0.4	784.4 ± 0.5	768.9 ± 0.5	756.5 ± 0.5	742.9 ± 0.5	731.9 ± 0.5	721.1 ± 0.6	712.5 ± 0.6
38600 kPa	850 ± 0.4	826.3 ± 0.4	805.8 ± 0.4	785.9 ± 0.5	770.4 ± 0.5	757.9 ± 0.5	744.3 ± 0.5	733.3 ± 0.6	722.5 ± 0.6	713.9 ± 0.6
39620 kPa	850.7 ± 0.4	827 ± 0.4	806.5 ± 0.5	786.6 ± 0.5	771.1 ± 0.5	758.6 ± 0.5	745 ± 0.6	734 ± 0.6	723.2 ± 0.6	714.6 ± 0.6
